The test system of the data set is middle cerebral artery-occluded model rats. The data set can be described thus: Fluorescence observation of brain disease site in cerebral infarction model rats. The class given is in vivo, rat. As to conditions: 100 mg/kg i.p., 4 hours after administration. The protocol:
After 6 hours, 12 hours, 24 hours, and 42 hours from the preparation of middle cerebral artery-occluded model rats, δ-aminolevulinic acid hydrochloride was dissolved in physiological saline and intraperitoneally administered to the individual model rats in an amount of 100 mg/kg-body weight of rat. […] Moreover, it was confirmed that the red light site was in a cerebral infarction state.

In the case of `Cl.NCC(=O)CCC(=O)O` [δ-aminolevulinic acid hydrochloride], the “metabolism to protoporphyrin IX in the brain” value was “metabolized and converted into protoporphyrin IX”.

Values taken from patent publication US8927532B2, “Therapeutic agent and diagnostic agent for mitochondrial dysfunction brain diseases” (SBI Pharmaceuticals Co., Ltd., priority 2007, dated 2015).
